The experiment concerns the target BthII1283 (Burkholderia thailandensis, UniProt Q2T5S0).

Consider `Cn1c(=O)[nH]c2nncnc2c1=O` [1-DMT], for which the “HPLC and HRMS of methylation product” value was “Reumycin (1-DMT) is converted to a single product with an identical retention time”.
